Data set [1] has as its target methyl halide transferase (MHT) (Batis maritima, UniProt Q9ZSZ7). The note with it: halide ion as substrate; Attieh et al. 1995, Ni and Hager 1999; cited from earlier work.
Another data set concerns A. fermentans. The settings on record: accumulation of fermentation products; cited from earlier work.
Another data set concerns RAD50Δ mutant. Format: cell-based, Saccharomyces cerevisiae. The note with it: RAD50Δ mutant versus W303a, OD600 at 24 hours. The source says: (§1) FIG. 11A-D: Methyl iodide production in recombinant S. cerevisiae. FIG. 11A. CH3I production pathway. The B. maritima MHT is expressed with a N-terminal vacuole targeting tag. The […] MHT methylates iodide ions using SAM as a methyl donor. FIG. 11B, CH3I measured in culture headspace over time. Activity on glucose-grown cells is shown. FIG. 11C, CH3I yields in grams per liter of culture per day. Values for the culturable red algae E. muricata are taken from the literature. Yields from B. maritime MHT-expressing E. coli and S. cerevisiae are calculated by comparison to standard curves. FIG. 11D, CH3I toxicity in yeast. Exponential phase cultures were diluted to an OD600 of 0.05 and commercially available CH3I was added. OD600 was measured at 24 hours of growth. The W303a lab strain is shown in filled boxes, the DNA methylation-sensitive RAD50Δ mutant is shown in open boxes.
(§2) The response of the host organism to toxic effects of an overproduced metabolite is important for development of an integrated industrial process. Methyl halides are SN2 methylating agents known to cause cytotoxic lesions in ssDNA and RNA. […]
(§3) Individual colonies were inoculated in YP media with 2% glucose and grown overnight. […] OD600 was measured by spectrometry with YP media used as a blank. […]

Data set [2] deals with S. cerevisiae W303a lab strain. Nature of the data set: Methyl iodide toxicity assay in yeast. The settings on record: cultures diluted to OD600 0.05, OD600 at 24 hours, FIG. 11D. Format: cell-based, Saccharomyces cerevisiae.
Text: as §1, §2, §3

Data set [3] concerns methyl bromide and methyl iodide production in E. Coli. Nature of the data set: Methyl halide production by heterologous MHTs expressed in E. coli (Example 8, headspace GC/MS). The class given is cell-based. The note with it: FIG. 7. As for the experimental part:
Nineteen methyl halide transferase genes from various organisms were codon-optimized and introduced into E. Coli. Production of methyl bromide and methyl iodide was determined for each. […] Group II UBA; Cryptococcus neoformans var. neoformans JEC21; Oryza sativa (japonica cultivar-group); Ostreococcus tauri; Dechloromonas aromatica RCB; Coprinopsis cinerea okayama; Robiginitalea bofirmata HTCC2501; Maricaulis maris MCS10; Flavobacteria bacterium BBFL7; Vitis vinifera and; halorhodospira halophila SL1.
For each strain a single colony was picked and grown overnight (10-14 hrs) in 20 mL of LB miller in a 30 mL glass test tube with aeration (a loose cap) at 37 C and 250 rpm shaking. The culture was spun down in a swinging bucket centrifuge for 5 min @ 3000×g. The cells were resuspended in 20mL of appropriate media (10 g/L Tryptone, 5 g/L Yeast Extract, 165 mM NaX [where X=CI, Br, I]) containing 100 uM IPTG inducer. The cells were sealed with rubber stoppers and parafilm and grown at 37 C with 250 rpm shaking for 1.5 hours. Cultures were taken to the GC/MS and 100 uL of headspace gas was sampled and loaded onto the column. The method run was VOIGT.m. The number of counts for the appropriate mass (MeCl, MeBr, MeI) were reported. Cells were always grown in the presence of 30 ug/mL chloramphenicol.
Methyl halide production was measured as described in the previous Examples. […] C. neoformans JEC21 gave the best methyl bromide and methyl iodide production. Leptospirillum gave the best methyl iodide production.

In data set [4] the test system is methyl halide production in E. coli on chloride, bromide and iodide. Nature of the data set: MHT library screen for methyl halide activity in E. coli (Example 9B). The settings on record: library of 89 genes, FIG. 10A. The class given is cell-based.
Text: As described in Example 9A, to screen for MHTs with high activity in a recombinant host, we synthesized all putative MHTs from the NCBI sequence database and assayed methyl halide production in E. colit. […] These genes were computationally codon optimized for E. coli and yeast expression and constructed using automated whole gene DNA synthesis.
Methyl halide production was sampled by analyzing the headspace gas using GC-MS (Supplementary Information).
Bacteria carrying MHT expression vectors were inoculated from freshly streaked plates and grown overnight. Cells were diluted 100-fold into media containing 1 mM IPTG and 100 mM appropriate sodium halide salt. Culture tubes were sealed with a rubber stopper and grown at 37 degrees for 3 hours. Yeast carrying MHT expression vectors were streaked on uracil dropout plates from freezer stocks (15% glycerol) and grown for 48 hours. Individual colonies were inoculated into 2 mL of synthetic complete uracil dropout media and grown overnight at 30 degrees. Cultures were next inoculated into 100 mL fresh synthetic complete uracil dropout media and grown for 24 hours. Cells were spun down and concentrated to high cell density (OD 50) in fresh YP media with 2% glucose and 100 mM sodium iodide salt. 10 mL of this concentrated culture was aliquoted into 14 mL culture tubes and sealed with a rubber stopper. […]

As for `[Br-].[K+]` [Br^−, bromide], the Km in data set [1] is 18.5 mM.
For the molecule `I` [I^−, iodide], the Km in data set [1] was 8.5 mM.
`CC(=O)O` [acetate]: the A. fermentans growth result with A. fermentans is on record as “inhibited”.
As to `CCO` [ethanol], in the data set on A. fermentans, the A. fermentans growth entry was “inhibited”.
`CI` [methyl iodide]: the “sensitivity to methyl iodide” value with RAD50Δ mutant is listed as “increased sensitivity”. In data set [2], the “level up to which yeast were resistant to deleterious methylating effects of methyl iodide” value was greater than 5000 µg/mL.

B1: Brassica rapa subsp. chinensis: methyl halide transferase from Brassica rapa subsp. chinensis, SEQ ID NO: 6 (protein, listed as Brassica rapa)
chain: MAEVQQNSAHINGENIIPPEDVAKFLPKTVEEGGWEKCWEDGVTPWDQGRATPLVVHLVESSSLPLGRALVPGCGGGHDVVAMASPERYVVGLDISESALEKAAETYGSSPKAKYFTFVKEDFFTWRPNELFDLIFDYVVFCAIEPETRPAWAKAMYELLKPDGELITLMYPITDHDGGPPYKVAFSTYEDVLVPVGFKAVSIEENPYSIATRKGKEKLARWKKIN
Take B1: the “halide specificity of methyl halide production” value in data set [3] is “significant specificity for methyl bromide production”.

B2: B. maritima: methyl halide transferase from Batis maritima, SEQ ID NO: 3 (protein, listed as Batis maritima)
chain: MSTVANIAPVFTGDCKTIPTPEECATFLYKVVNSGGWEKCWVEEVIPWDLGVPTPLVLHLVKNNALPNGKGLVPGCGGGYDVVAMANPERFMVGLDISENALKKARETFSTMPNSSCFSFVKEDVFTWRPEQPFDFIFDYVFFCAIDPKMRPAWGKAMYELLKPDGELITLMYPITNHEGGPPFSVSESEYEKVLVPLGFKQLSLEDYSDLAVEPRKGKEKLARWKKMNN
On to B2, for which, in data set [4], the “methyl halide activity on each ion (chloride, bromide, iodide)” value is reported as “highest activity”. Moreover, in data set [3] (165 mM NaX, 100 uM IPTG, 1.5 hours), the methyl bromide production entry is “best”. Moreover, in data set [3], the “halide specificity of methyl halide production” value was “significant specificity for methyl bromide production”.

Broadly, the Km is the substrate concentration at which the rate is half of its maximum.

The record behind these values is patent US9040266B2, “Cell-based systems for production of methyl formate” (The Regents of the University of California, priority 2009, dated 2015).
